Laboratory results taken from patent US20230150951A1, “2,5- OR 2,6-DISUBSTITUTED HYDROQUINONE DERIVATIVES WITH AT LEAST ONE CARBOXY, SULFO OR AMIDO GROUP USEFUL AS MEDICAMENTS” (OM PHARMA SA, priority 2020, published 2023).
Where two headings read alike, the source gives them in different places.

Legend:
Assay type in all cases: cell-based
IL-1beta = experiment: Cytokine release after LPS induction on human whole blood: IL-1β
Procedure: (§1) Aim of this in vitro method is to assess compounds effects on release of a panel of cytokines from whole blood following lipopolysaccharide (LPS) induced inflammatory reaction. Whole blood was incubated with compounds for 1 h prior to LPS induction. Cytokine levels in blood were measured using a multiplex FACS-based panel.
(§2) IC50 values determined for the tested compounds expressed in microM [μM] and the values for the inhibition of cytokines were listed for each compound.
(§3) Effect on cytokines release after LPS induction was performed on the compounds dissolved in DMSO or H2O to reach 10-fold concentrated stock solutions and dissolved in culture media.
(§4) Test system: Whole blood was removed from a single donor (into lithium heparin coated tubes; BD Vacutainer; 367886) and diluted 1:5 with RPMI 1640 (Thermo Fisher, 61870036). Within 30 minutes of sampling, blood was incubated with compounds for 1 h prior to LPS stimulation (O111:B4—Sigma L4391; 10 ng/ml final concentration). Stimulation continued under standard cell culture conditions (37° C. with 5% CO2) overnight (18 h), after which plates were centrifuged and supernatant removed and frozen at −80° C. until used for analyses.
(§5) Dilution of test compounds: 10×concentrated solutions (concerning to the final assay concentrations) of each test compound were prepared with the appropriate solvent (in DMSO or in water). These 10× compound solutions (10 μl) were then added to 90 μl pre-diluted whole blood (whole blood: RPMI1640, 1:5) resulting in the final assay concentration.
(§6) Test method: Diluted whole blood (80 μl) was pre-incubated with compounds (10 μl) to give final assay concentrations of 100, 30, 10, 3, 1, 0.3 and 0.1×10^−6M. Blood was incubated at 37° C. with 5% CO2 for 1 h. LPS was diluted in cell culture media to a concentration of […]; 10 μl was added to the whole blood to give a final concentration of 10 ng/ml. Plates were incubated at 37° C. for 18 h. Plates were centrifuged at 3,000 RPM for 5 minutes at 4° C. and supernatant removed and frozen at −80° C. until FACS analysis was carried out.
(§7) Cytokine release was measured using a custom multiplex system (ELISA Genie) according to manufacturers instructions. Prepared samples were run on an Attune NxT flow cytometer (Thermo Fisher).
(§8) Quantification of cytokine release inhibition: known concentration standards were run as part of the cytokine panel to allow quantification of each cytokine concentration in each sample. This was carried out using FCAP Array v3.0 software.
(§9) Results: The dose response relationship on cytokine release following LPS induction of inflammatory response in whole blood was assessed for all compounds. IC50 values were determined for each compound for a panel of cytokines (GM-CSF, IFN-gamma, IL-1beta, IL-2, IL-4, IL-5, IL-6, IL-8, IL-9, IL-10, IL-12p40, IL-13, IL-17A, IL-17F, IL-18, IL-21, IL-22, IL-33, TGF-beta, TNF-alpha, TNF-beta).

TNF-alpha = experiment: Cytokine release after LPS induction on human whole blood: TNFα
Procedure: as §1, §2, §3, §4, §5, §6, §7, §8, §9

IL-21 = experiment: Cytokine release after LPS induction on human whole blood: IL-21
Procedure: as §1, §2, §3, §4, §5, §6, §7, §8, §9

GM-CSF = experiment: Cytokine release after LPS induction on human whole blood: GM-CSF
Procedure: as §1, §2, §3, §4, §5, §6, §7, §8, §9

TGF-beta = experiment: Cytokine release after LPS induction on human whole blood: TGFβ
Procedure: as §1, §2, §3, §4, §5, §6, §7, §8, §9

IL-9 = experiment: Cytokine release after LPS induction on human whole blood: IL-9
Procedure: as §1, §2, §3, §4, §5, §6, §7, §8, §9

Human neutrophils = experiment: Neutrophil adhesion under static conditions; conditions: fMLP-stimulated adhesion to fibrinogen; method: 40 μM and 80 μM, concentration of the value not stated
In short: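 Donor buffy-coat neutrophils (3×10^6/ml, PBS with Ca/Mg, 10% FCS, pH 7.2) preincubated 30 min at 37° C with 40 μM or 80 μM compound, then stimulated 1 min at 37° C with 1 nM fMLP on fibrinogen-coated glass. Adherent cells fixed and counted by computer; mean ± SD, unpaired t-test.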

[1] = Homo sapiens, LPS 10 ng/ml, 18 h, read-out: Whole Blood: IL-1β IC50
[2] = human whole blood, inhibition of LPS induced inflammation, read-out: IC50 IL-1b
[3] = Homo sapiens, LPS 10 ng/ml, 18 h, read-out: Whole Blood: TNF α IC50
[4] = human whole blood, inhibition of LPS induced inflammation, read-out: IC50 TNFa
[5] = Homo sapiens, LPS 10 ng/ml, 18 h, read-out: Whole Blood: IL-21 IC50
[6] = human whole blood, inhibition of LPS induced inflammation, read-out: IC50 IL-21
[7] = Homo sapiens, LPS 10 ng/ml, 18 h, read-out: Whole Blood: GM-CSF IC50
[8] = human whole blood, inhibition of LPS induced inflammation, read-out: IC50 GM-CSF
[9] = Homo sapiens, LPS 10 ng/ml, 18 h, read-out: Whole Blood: TGFβ IC50
[10] = human whole blood, inhibition of LPS induced inflammation, read-out: IC50 TGFbeta
[11] = Homo sapiens, LPS 10 ng/ml, 18 h, read-out: Whole Blood: IL-9 IC50
[12] = human whole blood, inhibition of LPS induced inflammation, read-out: IC50 IL-9

Structure (SMILES)	IC50 (IL-1beta; [1])	IC50 (IL-1beta; [2])	IC50 (TNF-alpha; [3])	IC50 (TNF-alpha; [4])	IC50 (IL-21; [5])	IC50 (IL-21; [6])	IC50 (GM-CSF; [7])	IC50 (GM-CSF; [8])	IC50 (TGF-beta; [9])	IC50 (TGF-beta; [10])	IC50 (IL-9; [11])	IC50 (IL-9; [12])	Neutrophil adhesion inhibition (Human neutrophils)	also measured
O=C(O)c1cc(NC(=O)c2cc(O)c(C(=O)O)cc2O)cc(C(=O)O)c1 [Ia-015a, 5-(4-carboxy-2,5-dihydroxybenzamido)isophthalic acid]	> 100 µM	100 µM	0.17 µM	0.17 µM	57.2 µM	57.2 µM	2.76 µM	2.76 µM	> 100 µM	100 µM	1.47 µM	1.47 µM	17.38%	
O=C(O)c1cc(O)c(CN(Cc2cc(O)c(C(=O)O)cc2O)Cc2cc(O)c(C(=O)O)cc2O)cc1O [IIIc-061a, Tris(4-carboxy-2,5-dihydroxyphenylmethyl)amine]	> 100 µM	100 µM	0.03 µM	0.03 µM	6.38 µM	6.38 µM	31.2 µM	31.2 µM	> 100 µM	100 µM	8.85 µM	8.85 µM	58.69%	
O=C(O)c1cc(O)c(C(=O)Nc2ccccc2S(=O)(=O)O)cc1O [Ia-001c, 2,5-dihydroxy-4-(2-sulfophenylaminocarbonyl)benzoic acid]	> 100 µM	100 µM	0.05 µM	0.05 µM	> 100 µM	100 µM	> 100 µM	100 µM	> 100 µM	100 µM	46.9 µM	46.9 µM	31.33%	
O=C(O)Cc1cc(O)c(C(=O)Nc2ccccc2-c2nnn[nH]2)cc1O [IIIa-001aTz]	> 100 µM	100 µM	0.31 µM	0.31 µM	3 µM	3 µM	> 100 µM	100 µM	> 100 µM	100 µM	3.01 µM	3.01 µM	39.74%	
O=C(O)c1cc(NC(=O)c2cc(O)c(C(=O)Nc3ccccc3-c3nnn[nH]3)cc2O)ccc1O [Ic-001a-Tz/004a, 5-(4-(2-(1H-tetrazol-5-yl)phenylaminocarbonyl)-2,5-dihydroxybenzamido)-2-hydroxy benzoic acid]													96.99%	IC50 (IL-1beta; Homo sapiens, 18 h, read-out: Whole Blood: IL-1β IC50): > 100 µM; IC50 (IL-1beta; Homo sapiens, read-out: IC50 IL-1b): 100 µM; IC50 (TNF-alpha; Homo sapiens, 18 h, read-out: Whole Blood: TNF α IC50): 0.002 µM; IC50 (TNF-alpha; Homo sapiens, read-out: IC50 TNFa): 0.002 µM; IC50 (IL-21; Homo sapiens, 18 h, read-out: Whole Blood: IL-21 IC50): 0.3 µM; IC50 (IL-21; Homo sapiens, read-out: IC50 IL-21): 0.3 µM; IC50 (GM-CSF; Homo sapiens, 18 h, read-out: Whole Blood: GM-CSF IC50): 3.4 µM; IC50 (GM-CSF; Homo sapiens, read-out: IC50 GM-CSF): 3.4 µM; IC50 (TGF-beta; Homo sapiens, 18 h, read-out: Whole Blood: TGFβ IC50): > 100 µM; IC50 (TGF-beta; Homo sapiens, read-out: IC50 TGFbeta): 100 µM; IC50 (IL-9; Homo sapiens, 18 h, read-out: Whole Blood: IL-9 IC50): 8.48 µM; IC50 (IL-9; Homo sapiens, read-out: IC50 IL-9): 8.48 µM
O=C(O)c1cc(NC(=O)c2cc(O)cc(C(=O)Nc3ccc(O)c(C(=O)O)c3)c2O)ccc1O [IIc-007a, 5-(3-(3-carboxy-4-hydroxyphenylaminocarbonyl)-2,5-dihydroxybenzamido)-2-hydroxy benzoic acid]	> 100 µM	100 µM	0.03 µM	0.03 µM	9.41 µM	9.41 µM	26 µM	26 µM	> 100 µM	100 µM	2.14 µM	2.14 µM	64.61%	
O=C(Nc1ccccc1-c1nnn[nH]1)c1cc(O)c(C(=O)Nc2ccccc2-c2nnn[nH]2)cc1O [Ic-001aTz2, N1,N4-bis(2-(1H-tetrazol-5-yl)phenyl)-2,5-dihydroxyterephthalamide]	> 100 µM		0.1 µM		32 µM		> 100 µM		> 100 µM		9.13 µM		97.15%	
O=C(O)c1cc(NC(=O)c2cc(O)c(C(=O)Nc3ccc(O)c(C(=O)O)c3)cc2O)ccc1O [Ic-007a, 5-(4-(3-carboxy-4-hydroxyphenylaminocarbonyl)-2,5-dihydroxybenzamido)-2-hydroxy benzoic acid]	> 100 µM	100 µM	0.27 µM	0.27 µM	1.9 µM	1.9 µM	> 100 µM	100 µM	> 100 µM	100 µM	27.1 µM	27.1 µM	57.5%	

Further lines, with some results ahead:

IC50 (IL-1beta; [1])	IC50 (IL-1beta; [2])	IC50 (TNF-alpha; [3])	IC50 (TNF-alpha; [4])	IC50 (IL-21; [5])	IC50 (IL-21; [6])	IC50 (GM-CSF; [7])	IC50 (GM-CSF; [8])	IC50 (TGF-beta; [9])	IC50 (TGF-beta; [10])	IC50 (IL-9; [11])	IC50 (IL-9; [12])	Structure (SMILES)	Neutrophil adhesion inhibition (Human neutrophils)	also measured
27.5 µM	27.5 µM	0.18 µM	0.18 µM	3.2 µM	3.2 µM	> 100 µM	100 µM	> 100 µM	100 µM	31.1 µM	31.1 µM	O=C(O)c1cc(O)cc(CSCc2cc(O)cc(C(=O)O)c2O)c1O [IVc-058a, 3-((2,5-Dihydroxy-3-carboxyphenyl)methylthiomethyl)-2,5-dihydroxybenzoic acid]	43.5%	
33.3 µM	33.3 µM	0.31 µM	0.31 µM	67.8 µM	67.8 µM	> 100 µM	100 µM	> 100 µM	100 µM	11.6 µM	11.6 µM	O=C(O)c1cc(NC(=O)c2cc(O)c(C(=O)O)cc2O)cc(NC(=O)c2cc(O)c(C(=O)O)cc2O)c1 [Ib-010a, 3,5-bis(2,5-dihydroxy-4-carboxybenzoylamino)benzoic acid]	1.5%	
14.1 µM	14.1 µM	0.3 µM	0.3 µM	> 100 µM	100 µM	1.83 µM	1.83 µM	> 100 µM	100 µM	2.9 µM	2.9 µM	COC(=O)c1cc(OC(C)=O)cc(CS(=O)(=O)Cc2cc(OC(C)=O)cc(C(=O)OC)c2OC(C)=O)c1OC(C)=O [IVc-059a-E2-A4]	87.5%	
38.6 µM	38.6 µM	0.16 µM	0.16 µM	1.87 µM	1.87 µM	> 100 µM	100 µM	> 100 µM	100 µM	0.4 µM	0.4 µM	O=C(O)c1cc(O)cc(CS(=O)(=O)Cc2cc(O)cc(C(=O)O)c2O)c1O [IVc-059a, 3-((2,5-Dihydroxy-3-carboxyphenyl)methylsulfonylmethyl)-2,5-dihydroxybenzoic acid]	10%	
